Assay results from patent publication US6479435B1, “Diaryl ethers and processes for their preparation and herbicidal and desiccant compositions containing them” (ISK Americas Incorporated, priority 1997, dated 2002).

Assays:
Format in all cases: in vivo
[1] = system: Johnsongrass (Sorghum halepense, SORHA); assay: Pre-emerge greenhouse herbicide test, phytotoxicity rating; conditions: 14 days after application, rating scale 0-100
Outline: (§1)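 Seeds sown in sandy loam one day before track-sprayer application of acetone solutions at 125–1000 g ai/ha (187 l/ha), then surface-watered to incorporate and bottom-watered. Injury scored visually at 14 days on a 0–100 scale (0 no damage, 100 complete death).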

[2] = system: barnyardgrass (Echinochloa crusgalli, ECHCG); assay: as above; conditions: 14 days after application, rating scale 0-100
Outline: as §1

[3] = system: common ragweed (Ambrosia artemisiifolia L., AMBEL); assay: as above; conditions: 14 days after application, rating scale 0-100
Outline: as §1

[4] = system: green foxtail (Setaria viridis, SETVI); assay: as above; conditions: 14 days after application, rating scale 0-100
Outline: as §1

[5] = system: ivyleaf morningglory (Ipomoea hederacea, IPOHE); assay: as above; conditions: 14 days after application, rating scale 0-100
Outline: as §1

[6] = system: lambsquarters (Chenopodium album, CHEAL); assay: as above; conditions: 14 days after application, rating scale 0-100
Outline: as §1

[7] = system: large crabgrass (Digitaria sanguinalis, DIGSA); assay: as above; conditions: 14 days after application, rating scale 0-100
Outline: as §1

[8] = system: redroot pigweed (Amaranthus retroflexus, AMARE); assay: as above; conditions: 14 days after application, rating scale 0-100
Outline: as §1

[9] = system: sicklepod (Cassia obtusifolia, CASOB); assay: as above; conditions: 14 days after application, rating scale 0-100
Outline: as §1

[10] = system: velvetleaf (Abutilon theophrasti, ABUTH); assay: as above; conditions: 14 days after application, rating scale 0-100
Outline: as §1

[11] = system: field corn (Zea mays L., var. Dekalb 535, CORN); assay: Pre-emerge greenhouse test, crop damage rating; conditions: 14 days after application, rating scale 0-100
Outline: as §1

[12] = system: upland rice (Oryza sp., var.Tebonnet, RICE); assay: Pre-emerge greenhouse test, crop damage rating; conditions: 14 days after application, rating scale 0-100
Outline: as §1

[13] = system: soybean (Glycine max L., var. Pella 86, SOY); assay: Pre-emerge greenhouse test, crop damage rating; design: key to SOY crop damage rating: 0 = no damage, 100 = complete death of all plants; conditions: 14 days after application, rating scale 0-100
Outline: as §1

[14] = system: common ragweed (Ambrosia artemisiifolia L., AMBEL); assay: Post-emerge greenhouse herbicide test, phytotoxicity rating; conditions: 14 days after application, scale 0-100
Outline: (§2)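 Plants at the 2-3 leaf stage, sown 8-21 days earlier, were track-sprayed post-emergence with compound in acetone plus 0.25% v/v non-ionic surfactant at 63-1000 g ai/ha (187 l/ha). Damage was rated at 14 days on a 0-100 scale (0 none, 100 all plants dead), for both crop injury and weed control.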

[15] = system: Johnsongrass (Sorghum halepense, SORHA); assay: as above; conditions: 14 days after application, scale 0-100
Outline: as §2

[16] = system: barnyardgrass (Echinochloa crusgalli, ECHCG); assay: as above; conditions: 14 days after application, scale 0-100
Outline: as §2

[17] = system: green foxtail (Setaria viridis, SETVI); assay: as above; conditions: 14 days after application, scale 0-100
Outline: as §2

[18] = system: ivyleaf morningglory (Ipomoea hederacea, IPOHE); assay: as above; conditions: 14 days after application, scale 0-100
Outline: as §2

[19] = system: lambsquarters (Chenopodium album, CHEAL); assay: as above; conditions: 14 days after application, scale 0-100
Outline: as §2

[20] = system: large crabgrass (Digitaria sanguinalis, DIGSA); assay: as above; conditions: 14 days after application, scale 0-100
Outline: as §2

[21] = system: redroot pigweed (Amaranthus retroflexus, AMARE); assay: as above; conditions: 14 days after application, scale 0-100
Outline: as §2

[22] = system: velvetleaf (Abutilon theophrasti, ABUTH); assay: as above; conditions: 14 days after application, scale 0-100
Outline: as §2

[23] = system: field corn (Zea mays L., var. Dekalb 535, CORN); assay: Post-emerge greenhouse test, crop damage rating; conditions: 14 days after application, scale 0-100
Outline: as §2

[24] = system: upland rice (Oryza sp., var.Tebonnet, RICE); assay: Post-emerge greenhouse test, crop damage rating; conditions: 14 days after application, scale 0-100
Outline: as §2

[25] = system: soybean (Glycine max L., var. Pella 86, SOY); assay: Post-emerge greenhouse test, crop damage rating; design: key to crop damage rating SOY: 0-100 scale: 0 = no damage, 100 = complete death of all plants; conditions: 14 days after application, scale 0-100
Outline: as §2

## Cc1nsc(Oc2cc(-n3c(=O)n4n(c3=S)CCCC4)c(F)cc2Cl)c1[N+](=O)[O-] [Compound 8-35]
[1]; Rate 125 g al/ha
  SORHA phytotoxicity rating: 20
[1]; Rate 500 g al/ha
  SORHA phytotoxicity rating: 90
[2]; Rate 125 g al/ha
  ECHCG phytotoxicity rating: 10
[2]; Rate 500 g al/ha
  ECHCG phytotoxicity rating: 90
[3]; Rate 125 g al/ha
  AMBEL phytotoxicity rating: 50
[3]; Rate 500 g al/ha
  AMBEL phytotoxicity rating: 90
[4]; Rate 125 g al/ha
  SETVI phytotoxicity rating: 90
[4]; Rate 500 g al/ha
  SETVI phytotoxicity rating: 100
[5]; Rate 125 g al/ha
  IPOHE phytotoxicity rating: 50
[5]; Rate 500 g al/ha
  IPOHE phytotoxicity rating: 100
[6]; Rate 125 g al/ha
  CHEAL phytotoxicity rating: 100
[6]; Rate 500 g al/ha
  CHEAL phytotoxicity rating: 100
[7]; Rate 125 g al/ha
  DIGSA phytotoxicity rating: 0
[7]; Rate 500 g al/ha
  DIGSA phytotoxicity rating: 80
[8]; Rate 125 g al/ha
  AMARE phytotoxicity rating: 100
[8]; Rate 500 g al/ha
  AMARE phytotoxicity rating: 100
[9]; Rate 125 g al/ha
  CASOB phytotoxicity rating: 30
[9]; Rate 500 g al/ha
  CASOB phytotoxicity rating: 100
[10]; Rate 125 g al/ha
  ABUTH phytotoxicity rating: 100
[10]; Rate 500 g al/ha
  ABUTH phytotoxicity rating: 100
[11]; Rate 125 g al/ha
  CORN crop damage rating: 30
[11]; Rate 500 g al/ha
  CORN crop damage rating: 30
[12]; Rate 500 g al/ha
  RICE crop damage rating: 70
[13]; Rate 125 g al/ha
  SOY crop damage rating: 0
[13]; Rate 500 g al/ha
  SOY crop damage rating: 30
[14]; rate 63 g ai/ha
  phytotoxicity rating AMBEL: 10
[14]; rate 500 g ai/ha
  phytotoxicity rating AMBEL: 10
[15]; rate 500 g ai/ha
  phytotoxicity rating SORHA: 80
[16]; rate 63 g ai/ha
  phytotoxicity rating ECHCG: 0
[16]; rate 500 g ai/ha
  phytotoxicity rating ECHCG: 80
[17]; rate 63 g ai/ha
  phytotoxicity rating SETVI: 40
[17]; rate 500 g ai/ha
  phytotoxicity rating SETVI: 60
[18]; rate 63 g ai/ha
  phytotoxicity rating IPOHE: 40
[18]; rate 500 g ai/ha
  phytotoxicity rating IPOHE: 95
[19]; rate 63 g ai/ha
  phytotoxicity rating CHEAL: 80
[19]; rate 500 g ai/ha
  phytotoxicity rating CHEAL: 99
[20]; rate 63 g ai/ha
  phytotoxicity rating DIGSA: 0
[20]; rate 500 g ai/ha
  phytotoxicity rating DIGSA: 10
[21]; rate 63 g ai/ha
  phytotoxicity rating AMARE: 95
[21]; rate 500 g ai/ha
  phytotoxicity rating AMARE: 100
[22]; rate 63 g ai/ha
  phytotoxicity rating ABUTH: 100
[22]; rate 500 g ai/ha
  phytotoxicity rating ABUTH: 100
[23]; rate 63 g ai/ha
  crop damage rating CORN: 10
[23]; rate 500 g ai/ha
  crop damage rating CORN: 10
[24]; rate 63 g ai/ha
  crop damage rating RICE: 20
[24]; rate 500 g ai/ha
  crop damage rating RICE: 50
[25]; rate 63 g ai/ha
  crop damage rating SOY: 20
[25]; rate 500 g ai/ha
  crop damage rating SOY: 90

## O=c1n(-c2cc(Oc3ncc([N+](=O)[O-])s3)c(Cl)cc2F)c(=S)n2n1CCCC2 [Compound 8-36]
[1]; Rate 125 g al/ha
  SORHA phytotoxicity rating: 20
[1]; Rate 250 g al/ha
  SORHA phytotoxicity rating: 50
[2]; Rate 125 g al/ha
  ECHCG phytotoxicity rating: 0
[2]; Rate 250 g al/ha
  ECHCG phytotoxicity rating: 70
[3]; Rate 125 g al/ha
  AMBEL phytotoxicity rating: 90
[3]; Rate 250 g al/ha
  AMBEL phytotoxicity rating: 100
[4]; Rate 125 g al/ha
  SETVI phytotoxicity rating: 80
[4]; Rate 250 g al/ha
  SETVI phytotoxicity rating: 99
[5]; Rate 125 g al/ha
  IPOHE phytotoxicity rating: 90
[5]; Rate 250 g al/ha
  IPOHE phytotoxicity rating: 70
[6]; Rate 125 g al/ha
  CHEAL phytotoxicity rating: 100
[6]; Rate 250 g al/ha
  CHEAL phytotoxicity rating: 100
[7]; Rate 125 g al/ha
  DIGSA phytotoxicity rating: 70
[7]; Rate 250 g al/ha
  DIGSA phytotoxicity rating: 80
[8]; Rate 125 g al/ha
  AMARE phytotoxicity rating: 100
[8]; Rate 250 g al/ha
  AMARE phytotoxicity rating: 100
[9]; Rate 125 g al/ha
  CASOB phytotoxicity rating: 90
[9]; Rate 250 g al/ha
  CASOB phytotoxicity rating: 70
[10]; Rate 125 g al/ha
  ABUTH phytotoxicity rating: 100
[10]; Rate 250 g al/ha
  ABUTH phytotoxicity rating: 100
[11]; Rate 125 g al/ha
  CORN crop damage rating: 0
[11]; Rate 250 g al/ha
  CORN crop damage rating: 20
[12]; Rate 125 g al/ha
  RICE crop damage rating: 30
[12]; Rate 250 g al/ha
  RICE crop damage rating: 70
[13]; Rate 125 g al/ha
  SOY crop damage rating: 0
[13]; Rate 250 g al/ha
  SOY crop damage rating: 100
[14]; rate 63 g ai/ha
  phytotoxicity rating AMBEL: 20
[14]; rate 250 g ai/ha
  phytotoxicity rating AMBEL: 20
[15]; rate 63 g ai/ha
  phytotoxicity rating SORHA: 30
[15]; rate 250 g ai/ha
  phytotoxicity rating SORHA: 90
[16]; rate 63 g ai/ha
  phytotoxicity rating ECHCG: 50
[16]; rate 250 g ai/ha
  phytotoxicity rating ECHCG: 40
[17]; rate 63 g ai/ha
  phytotoxicity rating SETVI: 0
[17]; rate 250 g ai/ha
  phytotoxicity rating SETVI: 30
[18]; rate 63 g ai/ha
  phytotoxicity rating IPOHE: 100
[18]; rate 250 g ai/ha
  phytotoxicity rating IPOHE: 95
[19]; rate 63 g ai/ha
  phytotoxicity rating CHEAL: 95
[19]; rate 250 g ai/ha
  phytotoxicity rating CHEAL: 99
[20]; rate 63 g ai/ha
  phytotoxicity rating DIGSA: 30
[20]; rate 250 g ai/ha
  phytotoxicity rating DIGSA: 60
[21]; rate 63 g ai/ha
  phytotoxicity rating AMARE: 100
[21]; rate 250 g ai/ha
  phytotoxicity rating AMARE: 100
[22]; rate 63 g ai/ha
  phytotoxicity rating ABUTH: 100
[22]; rate 250 g ai/ha
  phytotoxicity rating ABUTH: 100
[23]; rate 63 g ai/ha
  crop damage rating CORN: 10
[23]; rate 250 g ai/ha
  crop damage rating CORN: 10
[24]; rate 63 g ai/ha
  crop damage rating RICE: 40
[24]; rate 250 g ai/ha
  crop damage rating RICE: 30
[25]; rate 63 g ai/ha
  crop damage rating SOY: 30
[25]; rate 250 g ai/ha
  crop damage rating SOY: 90
